We go through six compounds from patent US9849198B2, “Discrete imaging of hepatic oxidative and nitrosative stress with two-channel nanoparticles for in vivo drug safety screening” (The Board of Trustees of the Leland Stanford Junior …, priority 2013, dated 2017).

In one series the test system is liver tissue. Nature of the series: Histology (H&E), nitrotyrosine immunohistochemistry and TUNEL staining of liver after drug challenge. It is filed as in vivo, mice. The procedure: The correlation of an imaging biomarker with histological changes in the tissue of interest is desirable to validate the use of a biomarker for indicating an intended pathological outcome. To this end, histological and immunohistochemical analysis of liver tissue was performed on mice 45 min (FIGS. 3D and 11) and 180 min (FIGS. 3E and 11) following treatment with the indicated doses of APAP.
Animals were imaged longitudinally for the indicated lengths of time, warmed until observable sternal recumbence, and then returned to their cage. Animals were euthanized 180 min following drug treatment, and their livers were resected and placed into buffered formalin for histological examination. A separate set of animals was fasted, treated with drug, and their livers were resected after euthanasia to provide tissues for histological examination 45 min following drug treatment.
All tissues were embedded in paraffin prior to 10 micron sectioning. Histology samples were stained by hematoxylin and eosin under standard protocols. Immunohistochemistry samples were processed using an anti-nitrotyrosine primary antibody (Life Technologies Inc., NY, USA) at 1:500 dilution, with color development according to the protocol described in the DAKO LSB+ kit. Endogenous peroxidases were quenched prior to processing. TUNEL staining was performed according to the manufacturer instructions using the ApopTag Plus Peroxidase In Situ Apoptosis Kit (EMD Millipore, Mass., USA). All images were acquired using an Olympus IX2-UCB (Olympus America Inc., PA, USA) inverted fluorescence microscope equipped with a Nuance (CRi Inc., MA, USA) hyperspectral camera capable of brightfield full color imaging.

Series [1] concerns drug-induced hepatic oxidative and nitrosative stress. Nature of the series: Real-time in vivo CF-SPN imaging of drug-induced hepatotoxicity (chemiluminescence and fluorescence index). Also noted: species or system female nude mice.
Procedure: Female nude mice were administered a given dose of APAP intraperitoneally, anesthetized, and fitted with tail vein catheters.
All animal experiments involved 8-10 week old female nude mice (Charles River Laboratories International, Inc., Mass., USA). Animals were fasted for 8 h prior to imaging for all drug-induced hepatotoxicity imaging. Animals were treated intraperitoneally with sterilized saline solutions of APAP (10 mg/mL) or INH (10 mg/mL) and were then anesthetized with intraperitoneal injection of 100 mg/kg ketamine and 10 mg/mL xylazine. A tail vein catheter was inserted, and the mice were placed in an IVIS® Spectrum imaging system. Fifteen minutes after the administration of drug, 0.8 mg CF-SPN was injected intravenously through the tail vein catheter, and imaging began immediately. Luminescence images were acquired for 3 min with an open filter, and fluorescence images were acquired using autoexposure with excitation of 580±10 nm, and emission at both 680±10 nm and 820±10 nm.
Luminescence data was processed using Living Image software (v. 4.3.1, Perkin Elmer, Mass., USA) for all experiments, in addition to fluorescence data for biodistribution experiments. For fluorescent ratiometric mapping of liver intensity, image scale bars were normalized, with the scale set to a red color scheme.
Fluorescence images without photograph overlay were exported as TIFF, read into Matlab® (v. 8.0.0.783, The MathWorks Inc., CO, USA) where the percent difference between the fluorescence intensity at 680 nm and 820 nm was mapped for the liver region of interest. To plot the fluorescence index (FL index) over time, fluorescence intensities of the liver region of interest were extracted for images acquired with emission at 680 nm and at 820 nm using Living Image software. The intensity values, measured in units of radiance efficiency, were exported to Excel® where the percent difference in emission intensity at 680 nm and 820 nm was calculated. Finally, the FL index was calculated as the ratio of the percent difference of drug treated animals to that of control animals. All statistical analyses were performed using Prism software (v. 5.0c, GraphPad Software Inc., CA, USA).
A further series relates to liver H2O2. As to the kind of experiment: Extension of H2O2 detection window by readministration of CF-SPN after APAP. The format is in vivo, mice. Conditions: APAP 300 mg/kg i.p. How it is done: FIG. 10A illustrates extension luminescent images of the time course of H2O2 detection after drug challenge by readministration of CF-SPN. Mice were administered 300 mg/kg APAP (top row, 1-4) or saline (bottom row, 5-8) i.p., followed by the administration of 0.8 mg CF-SPN i.v. After 25 min, CF-NP was readministered i.v.
FIG. 10B is a graph illustrating the quantitation of liver luminescence. Black arrow in indicates CF-SPN readministration. Numbers on images correspond to time points indicated on plot.
This elevation in luminescence from APAP overdose was sustained over the time course of imaging (FIG. 3B). However, due to the baseline consumption of CPPO that had been observed in mouse serum (FIG. 7B), the ability to extend the H2O2 detection window with the re-administration of CF-SPN was assessed (FIG. 10). The re-administration of CF-SPN following treatment with a hepatotoxic dose of APAP (300 mg/kg) produced an elevated luminescence signal having approximately 50% of the intensity of the initial CF-SPN injection.

In series [2] the test system is APAP-induced hepatic ROS and RNS production. As to the kind of experiment: In vivo monitoring of remediation of APAP-induced hepatotoxicity with enzyme inhibitors and antioxidant scavengers. The conditions noted are these: for FL index / ONOO/HOCl production in liver / luminescence emission / H2O2 production in liver: APAP 300 mg/kg i.p. with GSH 200 mg/kg i.v., 1-ABT 2×100 mg/kg i.p. or t-1,2-DCE 0.2 mg/kg i.p. Also noted: species or system mice. How it is done:
To this end, the effects of inhibitors of APAP bioactivation on in vivo hepatic ROS and RNS production were evaluated using the CF-SPNs of the disclosure (FIGS. 4A, 4C, and 4D).
Without wishing to be bound by any one theory, a mechanism for APAP bioactivation involves CYP450-mediated oxidation to an iminoquinone, N-acetylparaquinonimine (NAPQI), which can bind directly to cellular proteins to induce mitochondrial dysfunction and the production of ONOO, or undergo reduction by molecular oxygen to form superoxide (O2.^−) and H2O2 (FIG. 4B).
For inhibitor studies, animals were treated with 200 mg/kg of GSH intravenously 5 min prior to drug treatment (James et al., (2003) Toxicol. Sci. 75: 458-467), with 0.2 mg/kg t-1,2-DCE intraperitoneally 2 h prior to drug treatment (Jackson et al., (2000) Toxicol. Sci. 55: 266-273), or with 100 mg/kg 1-ABT intraperitoneally 12 and 24 h prior to drug treatment (as described in Jackson et al., (2000) Toxicol. Sci. 55: 266-273).

Series [3] concerns drug-induced liver production of H2O2. The conditions noted are these: APAP 300 mg/kg i.p.; 0.2 mg luminol i.v., dose equal to CPPO in 0.8 mg CF-SPN.
The conditions of series [4]: anti-tuberculosis chemotherapy; cited from earlier work.
Setting [5] is: 200, 100, 50 mg/kg i.p., 0.8 mg CF-SPN i.v.

For the compound `CC(=O)Nc1ccc(O)cc1` [APAP, acetaminophen], in the series with liver tissue (45 min after drug administration), the “foci positive for protein nitrotyrosyl residues or TUNEL (DNA fragmentation)” value was “no foci positive”. In addition, in the series with liver tissue (45 min after drug challenge, any dose level (300, 150, 75 mg/kg)), the “histological changes in liver tissue (hematoxylin/eosin)” value is “No histological changes”. In the series on liver tissue (180 min after administration, 300 mg/kg), the “immunohistochemical and histological findings in liver” value was “significant protein nitrotyrosyl and TUNEL-positive foci, as well as hepatocellular degeneration characteristic of APAP-induced oncotic necrosis”. In addition, the “immunohistochemical or histological changes to liver tissue” value in the series with liver tissue (lower doses (150 mg/kg, 75 mg/kg)) is reported as “did not induce immunohistochemical or histological changes to liver tissue”. Also, the “liver chemiluminescence (H2O2)” value in series [1] (150 mg/kg and 75 mg/kg i.p., 0.8 mg CF-SPN i.v.) is given as “only baseline luminescence similar to untreated mice”; in series [1] (300 mg/kg i.p., by 18 min after start of imaging, 0.8 mg CF-SPN i.v.), “significant enhancement in signal”. The “elevation in percent difference between fluorescence emission at 680 nm and 820 nm (ONOO/HOCl)” value in series [1] (53 min after CF-SPN administration, doses 300, 150, 75 mg/kg i.p.) is given as “only observed for mice receiving 300 mg/kg APAP”. For the same compound, in series [1] (APAP overdose 300 mg/kg i.p.), the “timing of increase in ONOO/HOCl generation (FL index)” value is “later than the generation of H2O2”. The “time after administration within which a significant decrease in H2O2 production occurs” value in the series with liver H2O2 was ≤ 60 min.
As for `Cl/C=C/Cl` [t-1,2-DCE, trans-1,2-dichloroethylene], in series [2], the “FL index / ONOO/HOCl production in liver” value is recorded as “suppressed ONOO/HOCl production to the same extent” and the “luminescence emission / H2O2 production in liver” value is “completely prevent H2O2 production”.
`Nc1cccc2c(=O)[nH][nH]c(=O)c12` [Luminol, luminol]: the “luminescent signal from liver after APAP overdose” value in series [3] was “did not produce any detectable luminescent signal”.
Take `NNC(=O)c1ccncc1` [INH, isoniazid]: in the series with liver tissue (180 min after drug administration, 200, 100, 50 mg/kg i.p.), the “severity of liver tissue degradation (histology, H&E)” value was “dose-dependent increase in the severity of liver tissue degradation”. Also, the “patients with associated hepatotoxicity” value in series [4] is recorded as ≤ 25%. In series [1] (setting [5]), the “dose dependence of H2O2 production (chemiluminescence)” value is recorded as “threshold dose-type production” and the “dose dependence of ONOO/HOCl production (fluorescence index)” value is “dose-dependent enhancement”. The “kinetics of oxidative stress compared with APAP” value in series [1] (i.p., chemiluminescent channel) is “more short-lived oxidative burst”. Also, the “kinetics of nitrosative stress compared with APAP” value in series [1] (i.p., fluorescent channel) was “more rapidly developed and sustained induction of nitrosative stress”.
`Nn1nnc2ccccc21` [1-ABT, 1-aminobenzotriazole]: the “duration of H2O2 production after CF-SPN administration” value in series [2] (APAP 300 mg/kg i.p. with 1-ABT 2×100 mg/kg i.p.) is “less than 20 min”. Further, in series [2], the “FL index / ONOO/HOCl production in liver” value was “suppressed ONOO/HOCl production to the same extent” and the “luminescence emission / H2O2 production in liver” value was “intense but short-lived”.
As to `N[C@@H](CCC(=O)N[C@@H](CS)C(=O)NCC(=O)O)C(=O)O` [GSH, glutathione], in series [2], the “FL index / ONOO/HOCl production in liver” value was “reduced level of H2O2 and ONOO/HOCl production relative to mice receiving APAP alone, but still elevated”; the “luminescence emission / H2O2 production in liver” value is “reduced level of H2O2 and ONOO/HOCl production relative to mice receiving APAP alone, but still elevated”.
